Article PMC6531345 (Bioorganic & medicinal chemistry letters, 2019)

Assays:
native MDH = settings: counter-screen; cited from earlier work
native Rho = settings: counter-screen; cited from earlier work
M. tuberculosis PtpB [1] = target: T1, M. tuberculosis PtpB (Mycobacterium tuberculosis, UniProt I6WXK4); type: biochemical; settings: pNPP substrate, 6–8 replicates
M. tuberculosis PtpB [2] = target: T1, M. tuberculosis PtpB; settings: cited from earlier work
E. coli GroEL/ES = settings: high-throughput screen; cited from earlier work
ESKAPE pathogens = settings: panel of Gram-positive and Gram-negative bacteria; cited from earlier work
human HSP60/10 = settings: in vitro; cited from earlier work

T1 sequence (I6WXK4 whole entry, looked up): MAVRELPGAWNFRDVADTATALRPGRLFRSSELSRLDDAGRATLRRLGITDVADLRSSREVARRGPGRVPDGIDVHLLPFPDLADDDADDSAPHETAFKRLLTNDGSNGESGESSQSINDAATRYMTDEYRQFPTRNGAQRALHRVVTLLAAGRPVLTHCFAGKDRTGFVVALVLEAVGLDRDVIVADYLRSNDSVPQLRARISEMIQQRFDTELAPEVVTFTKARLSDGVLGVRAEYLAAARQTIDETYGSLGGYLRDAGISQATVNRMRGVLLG

## O=[N+]([O-])c1cc(S(=O)(=O)Nc2ccc(-c3nc4cc(NS(=O)(=O)c5ccc(Cl)s5)ccc4o3)cc2)ccc1Cl [28R]
Native MDH
  inhibition of native MDH: only weakly
Native Rho
  inhibition of native Rho: only weakly

## O=S(=O)(Nc1ccc2oc(-c3ccccc3)nc2c1)c1cccc(O)c1 [L51-m]
M. tuberculosis PtpB [1]
  dose-response behaviour on PtpB phosphatase activity: bi-phasic response where compounds activate then inhibit phosphatase activity

## O=C(O)C(=O)N(Cc1cccc(Cl)c1)Cc1ccc(S(=O)(=O)NCCC(c2ccccc2)c2ccccc2)s1 [OMTS, (oxalylamino-methylene)-thiophene sulfonamide]
M. tuberculosis PtpB [2]
  inhibition of M. tuberculosis PtpB: potent and selective inhibitor

## Cc1ccc(S(=O)(=O)Nc2ccc(-c3nc4ccc(NS(=O)(=O)c5ccc(C)cc5)cc4[nH]3)cc2)cc1 [compound 1]
E. coli GroEL/ES
  GroEL/ES inhibition: one of our most potent GroEL/ES inhibitors
ESKAPE pathogens
  antibacterial efficacy: lacked any appreciable antibacterial efficacy

## Cc1ccc(C(=O)Nc2ccc(S(=O)(=O)O)c3cc(S(=O)(=O)O)cc(S(=O)(=O)O)c23)cc1NC(=O)c1cccc(NC(=O)Nc2cccc(C(=O)Nc3cc(C(=O)Nc4ccc(S(=O)(=O)O)c5cc(S(=O)(=O)O)cc(S(=O)(=O)O)c45)ccc3C)c2)c1 [suramin]
Human HSP60/10
  inhibition of human HSP60/10: can inhibit human HSP60/10 in vitro
